Experimental data taken from US20250101011A1, “PEPTIDYL NITRILE COMPOUND AND USE THEREOF” (SHANGHAI YIDIAN PHARMACEUTICAL TECHNOLOGY DEVELOPMENT CO., …, priority 2022, published 2025).

How the values were obtained:
rhCathepsin C/DPP1 = rhCathepsin C/DPP1 (Homo sapiens (Human), UniProt P53634); assay: Test for inhibition of DPP1 enzyme activity; type: biochemical; settings: recombinant human cathepsin C/DPP1; substrate Gly-Arg-AMC
Method: Recombinant human cathepsin, rhCathepsin C/DPP1, purchased from R&D systems
Gly-Arg-AMC (hydrOCHloride), purchased from Cayman chemical
• 1) Preparation and handling of compounds: Accurately weigh the compound and dissolve it in […] of DMSO to prepare a […] of the bulk, which is further diluted as required. • 2) Screening test: Dilute recombinant human cathepsin rhCathepsin C/DPP1 and recombinant human cathepsin rhCathepsin L with an activating buffer solution, and incubate at 37° C. for 60 min. Add 4 μL of test compound to the white well of the 384-well plate. Add 4 μL of the enzyme mixture after incubation to the white wells. Block the 384-well plate and allow to stand at room temperature for 30 min, and add 8 μL of 2-fold diluted Gly-Arg-AMC (hydrochloride). Block the 384-well plate and allow to stand at room temperature for 2 h. Prepare 4× stop solution and add 4 μL stop solution to white wells. Read fluorescence data on the fluorescence meter Victor Nivo35. • 3) Data analysis:
[…] using Prism Graphpad 8.0.

DPP1 = DPP1 (Homo sapiens (Human), UniProt P53634); assay: DPP1 activity inhibition test on U937 cells; type: cell-based; settings: substrate h-Gly-phe-AFC; for inhibition at 0.005 µM: U-937, 5 nM compound; for inhibition at 0.05 µM: U-937, 50 nM compound; for IC50: intracellular enzyme activity
Method: After incubation at 37° C. for 1 h, add h-Gly-phe-AFC (10 μL) to each well and start reaction.

Chain of rhCathepsin C/DPP1 (P53634 25-134): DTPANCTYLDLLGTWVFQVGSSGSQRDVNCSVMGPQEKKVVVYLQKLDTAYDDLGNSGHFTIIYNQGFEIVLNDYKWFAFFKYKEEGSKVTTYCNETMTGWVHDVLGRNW
Chain of rhCathepsin C/DPP1 (P53634 231-394): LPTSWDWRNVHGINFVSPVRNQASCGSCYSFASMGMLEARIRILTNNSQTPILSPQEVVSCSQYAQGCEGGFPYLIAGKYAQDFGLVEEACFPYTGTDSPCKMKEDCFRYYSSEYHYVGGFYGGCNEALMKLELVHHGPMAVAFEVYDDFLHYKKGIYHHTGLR
Chain of rhCathepsin C/DPP1 (P53634 395-463): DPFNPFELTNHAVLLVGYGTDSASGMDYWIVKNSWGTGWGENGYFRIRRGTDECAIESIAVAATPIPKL
Chain of DPP1 (P53634 25-463): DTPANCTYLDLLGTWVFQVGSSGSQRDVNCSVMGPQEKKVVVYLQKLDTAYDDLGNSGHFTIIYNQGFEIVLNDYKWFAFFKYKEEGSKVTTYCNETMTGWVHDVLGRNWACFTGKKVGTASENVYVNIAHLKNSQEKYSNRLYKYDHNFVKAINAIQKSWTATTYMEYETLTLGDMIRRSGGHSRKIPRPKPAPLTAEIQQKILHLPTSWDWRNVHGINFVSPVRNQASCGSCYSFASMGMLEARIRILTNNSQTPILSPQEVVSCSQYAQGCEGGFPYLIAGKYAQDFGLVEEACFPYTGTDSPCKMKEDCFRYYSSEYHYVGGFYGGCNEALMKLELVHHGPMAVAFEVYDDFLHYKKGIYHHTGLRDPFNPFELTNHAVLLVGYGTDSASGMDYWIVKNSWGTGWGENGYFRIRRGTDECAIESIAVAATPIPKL

SMILES	IC50 (rhCathepsin C/DPP1) [nM]	inhibition at 0.005 µM (DPP1) [%]	inhibition at 0.05 µM (DPP1) [%]	IC50 (DPP1) [nM]
N#C[C@H](Cc1ccc(-c2ccc3oc(=O)n(CF)c3c2)cc1)NC(=O)[C@@H]1CNCCCO1 [Compound D02]	4.1	30 to 75	75 to 100	5.7
N#C[C@H](Cc1ccc(-c2ccc3oc(=O)n(C(F)F)c3c2)cc1)NC(=O)[C@@H]1CNCCCO1 [Compound D04]	3.9	30 to 75	75 to 100	5.2
N#C[C@H](Cc1ccc(-c2ccc3c(c2)CCC3=O)cc1)NC(=O)[C@@H]1CNCCCO1 [Compound D09]	5.4	30 to 75	75 to 100	10
CN1CC2(C1)OC(=O)c1ccc(-c3ccc(C[C@@H](C#N)NC(=O)[C@@H]4CNCCCO4)cc3)cc12 [Compound D19]	3.5	30 to 75	75 to 100	41
CN1CC2(C1)OCc1ccc(-c3ccc(C[C@@H](C#N)NC(=O)[C@@H]4CNCCCO4)cc3)cc12 [Compound D20]	3.6	30 to 75	75 to 100	35
N#C[C@H](Cc1ccc(-c2ccc3c(c2)C2(COC2)OC3=O)cc1)NC(=O)[C@@H]1CNCCCO1 [Compound D21]	8	30 to 75	75 to 100	29
N#C[C@H](Cc1ccc(-c2ccc3c(c2)C2(CCN(C4COC4)CC2)OC3)cc1)NC(=O)[C@@H]1CNCCCO1 [Compound D26]	3.1	30 to 75	75 to 100	16
N#C[C@H](Cc1ccc(-c2ccc3c(c2)COC3=O)cc1)NC(=O)[C@@H]1CNCCCO1 [Compound D44]	5.2	30 to 75	75 to 100	14
Cn1c(=O)oc2ccc(-c3ccc(C[C@@H](C#N)NC(=O)[C@@H]4CNCC5(CC5)CO4)c(F)c3)cc21 [Compound D46]	0.45	30 to 75	75 to 100	3
N#C[C@H](Cc1ccc(-c2ccc3c(c2)C2(CN(C4COC4)C2)OC3)cc1F)NC(=O)[C@@H]1CNCCCO1 [Compound D57]	2.2	30 to 75	75 to 100	10
N#C[C@H](Cc1ccc(-c2ccc3c(c2)CCC3=O)cc1F)NC(=O)[C@@H]1CNCCCO1 [Compound D60]	3.7	30 to 75	75 to 100	4.6
N#C[C@H](Cc1ccc(-c2ccc3c(c2)COC3=O)cc1F)NC(=O)[C@@H]1CNCCCO1 [Compound D61]	2.5	30 to 75	75 to 100	5.3
Cn1cc(-n2c(=O)oc3ccc(-c4ccc(C[C@@H](C#N)NC(=O)[C@@H]5CNCCCO5)c(F)c4)cc32)cn1 [Compound D63]	1.7	30 to 75	75 to 100	6.1
CN1CC(n2c(=O)oc3ccc(-c4ccc(C[C@@H](C#N)NC(=O)[C@@H]5CNCCCO5)c(F)c4)cc32)C1 [Compound D67]	0.18	30 to 75	75 to 100	32
CN1CC(n2c(=O)sc3ccc(-c4ccc(C[C@@H](C#N)NC(=O)[C@@H]5CNCCCO5)c(F)c4)cc32)C1 [Compound D70]	0.58	30 to 75	75 to 100	13.2
CC1OC(=O)c2ccc(-c3ccc(C[C@@H](C#N)NC(=O)[C@@H]4CNCCCO4)c(F)c3)cc21 (stereo partly drawn) [Compound D73]	2.5	30 to 75	75 to 100	3.8
C[C@@H]1OC(=O)c2ccc(-c3ccc(C[C@@H](C#N)NC(=O)[C@@H]4CNCCCO4)c(F)c3)cc21 [Compound D74]	2.9	30 to 75	75 to 100	8
C[C@H]1OC(=O)c2ccc(-c3ccc(C[C@@H](C#N)NC(=O)[C@@H]4CNCCCO4)c(F)c3)cc21 [Compound D75]	2.3	30 to 75	75 to 100	3.8
N#C[C@H](Cc1ccc(-c2ccc3c(c2)COC3=O)cc1F)NC(=O)[C@@H]1CNCC2(CC2)CO1 [Compound D78]	0.72	30 to 75	75 to 100	2.9
CC1CNC[C@@H](C(=O)N[C@H](C#N)Cc2ccc(-c3ccc4oc(=O)n(C)c4c3)cc2F)OC1 (stereo partly drawn) [Compound D85]	3.2	30 to 75	75 to 100	3
N#C[C@H](Cc1ccc(-c2ccc3c(c2)C2(CCN(C4COC4)CC2)OC3=O)cc1F)NC(=O)[C@@H]1CNCCCO1 [Compound D92]	0.32	30 to 75	75 to 100	5.9

SMILES	IC50 (rhCathepsin C/DPP1) [nM]	inhibition at 0.005 µM (DPP1) [%]	inhibition at 0.05 µM (DPP1) [%]	IC50 (DPP1) [nM]
N#C[C@H](Cc1ccc(-c2ccc3sc(=O)n(C4COC4)c3c2)cc1F)NC(=O)[C@@H]1CNCCCO1 [Compound D106]	1.36	–	–	4.3
CN1CCC2(CC1)COc1ccc(-c3ccc(C[C@@H](C#N)NC(=O)[C@@H]4CNCCCO4)c(F)c3)cc12 [Compound D108]	–	< 30	75 to 100	–
C[C@H]1CNC[C@@H](C(=O)N[C@H](C#N)Cc2ccc(-c3ccc4oc(=O)n(C)c4c3)cc2F)OC1 [Compound D109]	–	30 to 75	75 to 100	5.3
C[C@@H]1CNC[C@@H](C(=O)N[C@H](C#N)Cc2ccc(-c3ccc4oc(=O)n(C)c4c3)cc2F)OC1 [Compound D110]	–	–	–	4.3
N#C[C@H](Cc1ccc(-c2ccc3c(n2)CCC3=O)cc1F)NC(=O)[C@@H]1CNCCCO1 [Compound D111]	–	< 30	75 to 100	32.9
N#C[C@H](Cc1ccc(-c2cc3c(cn2)C(=O)CC3)cc1F)NC(=O)[C@@H]1CNCCCO1 [Compound D112]	–	< 30	30 to 75	–
N#C[C@H](Cc1ccc(-c2cnc3c(c2)CCC3=O)cc1F)NC(=O)[C@@H]1CNCCCO1 [Compound D113]	–	< 30	< 30	–
Cn1ccc(=O)c2ccc(-c3ccc(C[C@@H](C#N)NC(=O)[C@@H]4CNCCCO4)c(F)c3)cc21 [Compound D114]	–	–	–	867
CN1CC2(Cc3cc(-c4ccc(C[C@@H](C#N)NC(=O)[C@@H]5CNCCCO5)c(F)c4)ccc3C2=O)C1 [Compound D115]	–	–	–	29.4
N#C[C@H](Cc1ccc(-c2ccc3c(c2)CC2(CC2)C3=O)cc1F)NC(=O)[C@@H]1CNCCCO1 [Compound D116]	–	< 30	30 to 75	–
CC1(C)Cc2cc(-c3ccc(C[C@@H](C#N)NC(=O)[C@@H]4CNCCCO4)c(F)c3)ccc2C1=O [Compound D117]	–	30 to 75	75 to 100	6
CN1CCC(=O)c2ccc(-c3ccc(C[C@@H](C#N)NC(=O)[C@@H]4CNCCCO4)c(F)c3)cc21 [Compound D118]	1.6	–	–	2.1
N#C[C@H](Cc1ccc(-c2ccc3c(c2)C2(COC2)OC3=O)cc1F)NC(=O)[C@@H]1CNCCCO1 [Compound D119]	–	–	–	6.1
CCN1CCC(=O)c2ccc(-c3ccc(C[C@@H](C#N)NC(=O)[C@@H]4CNCCCO4)c(F)c3)cc21 [Compound D120]	2.3	–	–	3.42
N#C[C@H](Cc1ccc(-c2ccc3c(c2)CCC3=O)[se]1)NC(=O)[C@@H]1CNCCCO1 [Compound D121]	–	–	–	4.7
N#C[C@H](Cc1ccc(-c2ccc3c(c2)C2CC2C3=O)cc1F)NC(=O)[C@@H]1CNCCCO1 (stereo partly drawn) [Compound D122]	–	–	–	17
C[C@H]1OC(=O)c2ccc(-c3ccc(C[C@@H](C#N)NC(=O)[C@@H]4CNC[C@@H](F)CO4)c(F)c3)cc21 [Compound D123]	1.4	–	–	15
C[C@H]1CNC[C@@H](C(=O)N[C@H](C#N)Cc2ccc(-c3ccc4c(c3)N(C)CCC4=O)cc2F)OC1 [Compound D124]	11.2	–	–	–
CN1CCC(=O)c2ccc(-c3ccc(C[C@@H](C#N)NC(=O)[C@@H]4CNCCCO4)cc3)cc21 [Compound D125]	6.7	–	–	–
C[C@H]1OC(=O)c2ccc(-c3ccc(C[C@@H](C#N)NC(=O)[C@@H]4CNCCCO4)[se]3)cc21 [Compound D126]	10.8	–	–	–
[2H]C([2H])([2H])[C@H]1OC(=O)c2ccc(-c3ccc(C[C@@H](C#N)NC(=O)[C@@H]4CNCCCO4)c(F)c3)cc21 [Compound D127]	4.2	–	–	4.6
